Biological target: Dual-Specificity-Tyrosine-Phosphorylation-Regulated Kinase 1B (DYRK1B) (Homo sapiens, UniProt Q9Y463)
Test: radiometric […]-ATP kinase assay with recombinant DYRK1B and DYRKtide substrate ([…] ATP)
Type: biochemical

Chain of Dual-Specificity-Tyrosine-Phosphorylation-Regulated Kinase 1B (DYRK1B) (Q9Y463 whole entry): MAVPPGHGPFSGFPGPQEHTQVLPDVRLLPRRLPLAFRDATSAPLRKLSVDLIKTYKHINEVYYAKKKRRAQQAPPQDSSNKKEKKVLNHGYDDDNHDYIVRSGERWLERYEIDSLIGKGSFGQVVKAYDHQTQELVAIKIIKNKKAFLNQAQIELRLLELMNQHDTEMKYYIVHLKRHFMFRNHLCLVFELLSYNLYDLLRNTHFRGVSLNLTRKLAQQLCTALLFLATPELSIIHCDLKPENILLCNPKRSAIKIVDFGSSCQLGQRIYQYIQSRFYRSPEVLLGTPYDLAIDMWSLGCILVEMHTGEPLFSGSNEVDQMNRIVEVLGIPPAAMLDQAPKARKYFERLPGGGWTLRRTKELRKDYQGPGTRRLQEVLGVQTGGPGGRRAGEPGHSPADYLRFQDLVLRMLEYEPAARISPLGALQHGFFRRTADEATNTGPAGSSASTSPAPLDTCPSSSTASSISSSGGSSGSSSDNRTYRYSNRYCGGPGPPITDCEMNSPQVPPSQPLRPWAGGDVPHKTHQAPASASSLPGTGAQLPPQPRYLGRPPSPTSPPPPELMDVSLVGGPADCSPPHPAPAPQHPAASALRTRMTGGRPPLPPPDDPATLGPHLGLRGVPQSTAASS

IC50: 90 nM
SMILES: O=C(Nc1nc2cc(C(F)(F)F)ccc2[nH]1)c1csc(-c2ccc3c(c2)CCO3)n1 [DYRKi]

Reference: publication PMC4872774, “DYRK1B as therapeutic target in Hedgehog/GLI-dependent cancer cells with Smoothened inhibitor resistance” (Oncotarget, 2016)
